Experimental data reported in patent US9187472B2 (AbbVie Inc., priority 2012, dated 2015).

Tests used:
[1] = target: NAMPT (human, recombinant, C-terminally His-tagged) (Homo sapiens, UniProt P43490); assay: Time-Resolved Fluorescence Resonance Energy Transfer (TR-FRET) Binding Assay of NAMPT; details: without substrates; 6.8 nM NAMPT, 200 nM probe, 3 hours equilibration
How it was run: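 In a displacement format, the nicotinamide-site tracer at 200 nM competed with test compound for 6.8 nM enzyme detected via 1 nM terbium anti-His antibody; incubation lasted 3 hours at room temperature in 50 mM HEPES pH 7.5, 100 mM NaCl. Normalized 520/495 nm emission ratios gave IC50 values.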

[2] = target: NAMPT (Homo sapiens, UniProt P43490); assay: TR-FRET Binding Assay of NAMPT with PRPP; details: with 200 μM PRPP and 2.5 mM ATP; 2 nM NAMPT, 2 nM probe, 16 hours equilibration
How it was run: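 Substrate-containing variant: 200 μM PRPP plus 2.5 mM ATP are added to 2 nM NAMPT and 2 nM probe, with a 16-hour incubation ahead of TR-FRET reading.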

[3] = test system: PC3 cells; assay: NAMPT Cell Proliferation Assay; type: cell-based; details: Homo sapiens, PC-3, 120 h, 5 days incubation, cell viability by Cell Titer Glo
How it was run: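 Cell Titer Glo viability after 5-day exposure (37° C, 5% CO2); PC3, 500 cells/well, RPMI + 10% heat-inactivated FBS, overnight attachment before dosing. Dose range 10 μM to 1×10^−5 μM, 10-fold steps. IC50 = sigmoidal fit of % inhibition.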

Sequence of NAMPT (human, recombinant, C-terminally His-tagged) (P43490 whole entry): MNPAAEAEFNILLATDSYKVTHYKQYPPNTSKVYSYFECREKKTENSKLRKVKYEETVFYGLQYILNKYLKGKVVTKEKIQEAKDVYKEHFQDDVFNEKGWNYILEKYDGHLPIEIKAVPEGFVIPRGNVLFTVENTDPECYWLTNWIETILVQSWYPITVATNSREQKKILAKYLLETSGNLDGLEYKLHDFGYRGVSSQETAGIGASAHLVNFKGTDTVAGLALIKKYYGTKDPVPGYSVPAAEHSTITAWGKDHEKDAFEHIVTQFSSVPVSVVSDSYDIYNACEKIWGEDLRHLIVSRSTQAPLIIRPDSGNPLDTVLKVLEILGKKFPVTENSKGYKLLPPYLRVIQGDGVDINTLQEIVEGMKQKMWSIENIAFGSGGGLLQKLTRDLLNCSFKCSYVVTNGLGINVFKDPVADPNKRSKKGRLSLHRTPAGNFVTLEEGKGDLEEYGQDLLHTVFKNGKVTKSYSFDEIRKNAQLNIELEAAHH
Sequence of NAMPT (P43490 whole entry): as above

Row | SMILES | IC50 [1] [nM] | IC50 [2] [nM] | IC50 [3] [nM]
1 | Cc1cc(CC(=O)N(C[C@H]2CCCO2)c2ncc(C(=O)NCc3ccn4ccnc4c3)s2)no1 [Example 193, N-(imidazo[1,2-a]pyridin-7-ylmethyl)-2-{[(5-methyl-1,2-oxazol-3-yl)acetyl][(2R)-tetrahydrofuran-2-ylmethyl]amino}-1,3-thiazole-5-carboxamide] | 516 | 0.266 | 19.9
2 | CC(C)(O)CC(=O)N1CC[C@H](Oc2ccc(C(=O)NCc3ccn4ccnc4c3)cc2)C1 [Example 354, 4-{[(3S)-1-(3-hydroxy-3-methylbutanoyl)pyrrolidin-3-yl]oxy}-N-(imidazo[1,2-a]pyridin-7-ylmethyl)benzamide] | > 10000 | 0.526 | 7490
3 | CC(C)(C)OC(=O)N1CCC(c2ccc(NC(=O)NCc3ccn4ccnc4c3)cc2)CC1 [Example 216, tert-butyl 4-(4-{[(imidazo[1,2-a]pyridin-7-ylmethyl)carbamoyl]amino}phenyl)piperidine-1-carboxylate] | 118 | 0.19 | 6.59
4 | O=C(NCc1ccn2ccnc2c1)Nc1ccc(NS(=O)(=O)c2ccccc2-c2ccccc2)cc1 [Example 303, N-(4-{[(imidazo[1,2-a]pyridin-7-ylmethyl)carbamoyl]amino}phenyl)biphenyl-2-sulfonamide] | 9.99 | 0.169 | 1.79
5 | CC(C)(O)C(=O)N1CC(c2ccc(NC(=O)NCc3ccn4ccnc4c3)cc2)C1 [Example 457, 1-{4-[1-(2-hydroxy-2-methylpropanoyl)azetidin-3-yl]phenyl}-3-(imidazo[1,2-a]pyridin-7-ylmethyl)urea] | 1140 | 0.487 | 194
6 | O=C(NCc1ccn2ccnc2c1)Nc1ccc(O[C@@H]2CCN(C(=O)c3ccc(F)cc3)C2)cc1 [Example 691, 1-(4-{[(3R)-1-(4-fluorobenzoyl)pyrrolidin-3-yl]oxy}phenyl)-3-(imidazo[1,2-a]pyridin-7-ylmethyl)urea] | 169 | 0.67 | 77.7
7 | O=C(NCc1ccn2ccnc2c1)c1ccc(C2CCN(C(=O)c3ccc(Cl)cc3)C2)s1 (stereo not drawn) [Example 770, 5-[1-(4-chlorobenzoyl)pyrrolidin-3-yl]-N-(imidazo[1,2-a]pyridin-7-ylmethyl)thiophene-2-carboxamide] | 38.8 | 0.735 | 6
8 | CC(C)C(=O)NC1(c2ccc(C(=O)NCc3ccn4ccnc4c3)s2)COC1 [Example 324, N-(imidazo[1,2-a]pyridin-7-ylmethyl)-5-{3-[(2-methylpropanoyl)amino]oxetan-3-yl}thiophene-2-carboxamide] | 981 | 0.752 | 54.7
9 | O=C(Nc1ccc(C(=O)NCC2CCCO2)cc1)Nc1ccc2nccn2c1 (stereo not drawn) [Example 16] | 409 | 0.396 | 325
10 | CC(C)(C)OC(=O)Nc1ccc(C(=O)NCc2ccn3ccnc3c2)cc1F [Example 292, tert-butyl {2-fluoro-4-[(imidazo[1,2-a]pyridin-7-ylmethyl)carbamoyl]phenyl}carbamate] | 1540 | 1.15 | 7220
11 | CC(C)Cn1cc(-c2ncc(C(=O)NCc3ccn4ccnc4c3)s2)cn1 [Example 205, N-(imidazo[1,2-a]pyridin-7-ylmethyl)-2-[1-(2-methylpropyl)-1H-pyrazol-4-yl]-1,3-thiazole-5-carboxamide] | 1060 | 0.358 | 483
12 | CC(C)OCC(=O)N1CCC(c2ccc(NC(=O)NCc3ccn4ccnc4c3)cc2)C1 (stereo not drawn) [Example 384, 1-(imidazo[1,2-a]pyridin-7-ylmethyl)-3-(4-{1-[(propan-2-yloxy)acetyl]pyrrolidin-3-yl}phenyl)urea] | 406 | 0.375 | 51.7
13 | COCCC(=O)N(Cc1ccc(C#N)cc1)c1ccc(C(=O)NCc2ccc3nccn3c2)cc1 [Example 240, 4-[(4-cyanobenzyl)(3-methoxypropanoyl)amino]-N-(imidazo[1,2-a]pyridin-6-ylmethyl)benzamide] | 7350 | 8.75 | 651
14 | O=C(NCc1ccn2ccnc2c1)Nc1ccc(O[C@@H]2CCN(C(=O)c3ccc(F)cc3F)C2)cc1 [Example 692, 1-(4-{[(3R)-1-(2,4-difluorobenzoyl)pyrrolidin-3-yl]oxy}phenyl)-3-(imidazo[1,2-a]pyridin-7-ylmethyl)urea] | 83.9 | 1.19 | 19.8
15 | CC/C=C(\C)C(=O)N1CCC(c2ccc(C(=O)NCc3ccn4ccnc4c3)cc2)CC1 [Example 510, N-(imidazo[1,2-a]pyridin-7-ylmethyl)-4-{1-[(2E)-2-methylpent-2-enoyl]piperidin-4-yl}benzamide] | 142 | 0.284 | 12.1
16 | O=C(NCc1ccn2ccnc2c1)c1ccc(C2CCN(C(=O)c3cc(F)cc(F)c3)C2)cc1 (stereo not drawn) [Example 599, 4-[1-(3,5-difluorobenzoyl)pyrrolidin-3-yl]-N-(imidazo[1,2-a]pyridin-7-ylmethyl)benzamide] | 527 | 0.786 | 52.3
17 | CC(C)S(=O)(=O)N1CCC(c2ccc(C(=O)NCc3cn4ccnc4cn3)cc2)CC1 [Example 817, N-(imidazo[1,2-a]pyrazin-6-ylmethyl)-4-[1-(propan-2-ylsulfonyl)piperidin-4-yl]benzamide] | 65.8 | 1.6 | 9.27
18 | CCC(C)(C)C(=O)N1CCC(c2ccc(C(=O)NCc3ccn4ccnc4c3)cc2)CC1 [Example 501, 4-[1-(2,2-dimethylbutanoyl)piperidin-4-yl]-N-(imidazo[1,2-a]pyridin-7-ylmethyl)benzamide] | 104 | 0.483 | 5.96
19 | O=C(NCc1ccn2ccnc2c1)c1ccc(-c2cnn(Cc3ccccc3)c2)o1 [Example 741, 5-(1-benzyl-1H-pyrazol-4-yl)-N-(imidazo[1,2-a]pyridin-7-ylmethyl)furan-2-carboxamide] | 68 | 0.647 | 74.9
20 | O=C(NCc1ccc2nccn2c1)c1ccc(C2=CCN(C(=O)CCC3CCCO3)CC2)cc1 (stereo not drawn) [Example 96, N-(imidazo[1,2-a]pyridin-6-ylmethyl)-4-{1-[3-(tetrahydrofuran-2-yl)propanoyl]-1,2,3,6-tetrahydropyridin-4-yl}benzamide] | 192 | 1.56 | 9.65
21 | O=C(NCc1ccc2nccn2c1)c1ccc(-c2cnn(CC3CCOCC3)c2)s1 [Example 201, N-(imidazo[1,2-a]pyridin-6-ylmethyl)-5-[1-(tetrahydro-2H-pyran-4-ylmethyl)-1H-pyrazol-4-yl]thiophene-2-carboxamide] | 46.6 | 0.281 | 1.89
22 | O=C(NCc1ccn2ccnc2c1)c1ccc(C2CCN(C(=O)c3cccnc3)C2)cc1 (stereo not drawn) [Example 609, N-(imidazo[1,2-a]pyridin-7-ylmethyl)-4-[1-(pyridin-3-ylcarbonyl)pyrrolidin-3-yl]benzamide] | 598 | 0.62 | 142
23 | CC(C)(O)C(=O)N1CC(c2ccc(C(=O)NCc3ccn4ccnc4c3)cc2)C1 [Example 550, 4-[1-(2-hydroxy-2-methylpropanoyl)azetidin-3-yl]-N-(imidazo[1,2-a]pyridin-7-ylmethyl)benzamide] | 762 | 0.427 | 174
24 | Cc1cccc(C(=O)N2CC(c3ccc(C(=O)NCc4ccn5ccnc5c4)cc3)C2)c1 [Example 667, N-(imidazo[1,2-a]pyridin-7-ylmethyl)-4-[1-(3-methylbenzoyl)azetidin-3-yl]benzamide] | 226 | 0.798 | 45.8
25 | O=C(NCc1ccn2ccnc2c1)Nc1ccc(C2CN(C(=O)CC3CC3)C2)cc1 [Example 454, 1-{4-[1-(cyclopropylacetyl)azetidin-3-yl]phenyl}-3-(imidazo[1,2-a]pyridin-7-ylmethyl)urea] | 405 | 0.34 | 42.2
26 | O=C(NCc1ccn2ccnc2c1)Nc1ccc(C2CCN(C(=O)CC3CCOCC3)CC2)cc1 [Example 223, 1-(imidazo[1,2-a]pyridin-7-ylmethyl)-3-{4-[1-(tetrahydro-2H-pyran-4-ylacetyl)piperidin-4-yl]phenyl}urea] | 109 | 0.354 | 7.08
27 | O=C(NCc1ccn2ccnc2c1)c1cnc(-c2ccccc2)s1 [Example 361, N-(imidazo[1,2-a]pyridin-7-ylmethyl)-2-phenyl-1,3-thiazole-5-carboxamide] | 5030 | 1.94 | > 10000
28 | O=C(NCc1ccn2ccnc2c1)c1ccc(C2(O)CCOCC2)s1 [Example 399, 5-(4-hydroxytetrahydro-2H-pyran-4-yl)-N-(imidazo[1,2-a]pyridin-7-ylmethyl)thiophene-2-carboxamide] | 9500 | 1.54 | 7680
29 | CC(C)Cn1nccc1-c1ccc(C(=O)NCc2ccn3ccnc3c2)o1 [Example 818, N-(imidazo[1,2-a]pyridin-7-ylmethyl)-5-[1-(2-methylpropyl)-1H-pyrazol-5-yl]furan-2-carboxamide] | 1520 | 0.644 | 716
